# In paper PMC10882719 (Frontiers in Neuroscience, 2024):
# Like-named read-outs stand apart in the source and are kept apart here.
# Assays:
# Format in all cases: cell-based
# 168 GPCRs [1] = target: T1, 168 GPCRs (Homo sapiens, UniProt P08588)
# T1 construct: host or cells: PathHunter cell lines
# 168 GPCRs [2] = target: T2, 168 GPCRs (Homo sapiens, UniProt P24530); conditions: EDNRB
# T2 construct: host or cells: PathHunter cell lines
# T2 sequence (P24530 27-442): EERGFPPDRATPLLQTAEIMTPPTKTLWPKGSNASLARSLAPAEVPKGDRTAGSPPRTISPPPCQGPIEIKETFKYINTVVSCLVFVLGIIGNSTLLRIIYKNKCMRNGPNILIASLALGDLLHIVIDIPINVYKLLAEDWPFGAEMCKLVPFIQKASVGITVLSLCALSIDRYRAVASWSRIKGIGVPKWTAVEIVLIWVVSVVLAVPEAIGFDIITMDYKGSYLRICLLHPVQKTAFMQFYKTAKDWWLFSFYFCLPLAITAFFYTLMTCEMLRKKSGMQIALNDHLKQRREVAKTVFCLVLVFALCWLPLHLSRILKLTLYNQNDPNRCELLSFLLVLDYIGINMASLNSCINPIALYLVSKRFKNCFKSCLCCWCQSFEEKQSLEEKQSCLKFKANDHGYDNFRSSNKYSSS
# 168 GPCRs [3] = target: T3, 168 GPCRs (Homo sapiens, UniProt P34981); conditions: TRHR
# T3 construct: host or cells: PathHunter cell lines
# T3 sequence (P34981 1-398): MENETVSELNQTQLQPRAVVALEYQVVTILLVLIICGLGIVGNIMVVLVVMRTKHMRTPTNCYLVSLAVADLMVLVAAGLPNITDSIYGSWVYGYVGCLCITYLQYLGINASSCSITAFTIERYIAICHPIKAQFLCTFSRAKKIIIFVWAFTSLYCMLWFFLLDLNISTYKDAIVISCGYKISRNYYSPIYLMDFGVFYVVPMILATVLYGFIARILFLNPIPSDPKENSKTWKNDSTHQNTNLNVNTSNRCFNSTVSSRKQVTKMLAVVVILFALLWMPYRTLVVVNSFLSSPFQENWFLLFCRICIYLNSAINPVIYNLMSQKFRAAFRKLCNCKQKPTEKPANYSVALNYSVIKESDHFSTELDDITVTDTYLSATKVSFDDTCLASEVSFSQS
# 168 GPCRs [4] = target: T4, 168 GPCRs (Homo sapiens, UniProt P35368); conditions: ADRA1B
# T4 construct: host or cells: PathHunter cell lines
# T4 sequence (P35368 1-520): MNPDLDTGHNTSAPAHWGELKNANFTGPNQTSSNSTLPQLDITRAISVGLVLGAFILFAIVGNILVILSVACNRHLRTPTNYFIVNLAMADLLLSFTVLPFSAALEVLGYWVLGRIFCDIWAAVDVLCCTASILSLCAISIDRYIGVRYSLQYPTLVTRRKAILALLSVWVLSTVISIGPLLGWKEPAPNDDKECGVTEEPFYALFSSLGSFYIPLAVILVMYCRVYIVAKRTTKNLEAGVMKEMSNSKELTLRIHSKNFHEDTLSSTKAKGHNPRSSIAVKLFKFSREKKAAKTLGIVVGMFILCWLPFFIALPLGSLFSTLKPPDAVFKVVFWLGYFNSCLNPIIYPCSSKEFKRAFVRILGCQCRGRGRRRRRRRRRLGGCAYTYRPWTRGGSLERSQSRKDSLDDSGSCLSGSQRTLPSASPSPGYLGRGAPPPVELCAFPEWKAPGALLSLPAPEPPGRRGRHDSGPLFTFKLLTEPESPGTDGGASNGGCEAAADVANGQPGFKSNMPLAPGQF
# 168 GPCRs [5] = target: T5, 168 GPCRs (Homo sapiens, UniProt P49190); conditions: PTHR2
# T5 construct: host or cells: PathHunter cell lines
# T5 sequence (P49190 25-550): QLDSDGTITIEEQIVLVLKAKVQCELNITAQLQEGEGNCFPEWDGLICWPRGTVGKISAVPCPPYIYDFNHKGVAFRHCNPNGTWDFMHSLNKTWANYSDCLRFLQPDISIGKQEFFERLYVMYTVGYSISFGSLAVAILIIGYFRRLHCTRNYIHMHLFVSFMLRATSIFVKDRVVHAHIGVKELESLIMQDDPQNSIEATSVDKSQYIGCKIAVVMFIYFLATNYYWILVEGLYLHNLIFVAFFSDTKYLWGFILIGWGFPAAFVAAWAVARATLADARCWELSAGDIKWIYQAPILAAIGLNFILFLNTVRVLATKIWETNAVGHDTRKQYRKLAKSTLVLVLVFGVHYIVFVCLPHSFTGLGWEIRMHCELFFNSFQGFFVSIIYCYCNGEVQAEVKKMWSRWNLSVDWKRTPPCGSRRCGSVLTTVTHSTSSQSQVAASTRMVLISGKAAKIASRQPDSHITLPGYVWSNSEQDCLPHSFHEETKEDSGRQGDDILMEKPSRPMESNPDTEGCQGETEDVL
# 168 GPCRs [6] = target: T6, 168 GPCRs (Homo sapiens, UniProt Q16602)
# T6 construct: host or cells: PathHunter cell lines
# T6 sequence (Q16602 23-461): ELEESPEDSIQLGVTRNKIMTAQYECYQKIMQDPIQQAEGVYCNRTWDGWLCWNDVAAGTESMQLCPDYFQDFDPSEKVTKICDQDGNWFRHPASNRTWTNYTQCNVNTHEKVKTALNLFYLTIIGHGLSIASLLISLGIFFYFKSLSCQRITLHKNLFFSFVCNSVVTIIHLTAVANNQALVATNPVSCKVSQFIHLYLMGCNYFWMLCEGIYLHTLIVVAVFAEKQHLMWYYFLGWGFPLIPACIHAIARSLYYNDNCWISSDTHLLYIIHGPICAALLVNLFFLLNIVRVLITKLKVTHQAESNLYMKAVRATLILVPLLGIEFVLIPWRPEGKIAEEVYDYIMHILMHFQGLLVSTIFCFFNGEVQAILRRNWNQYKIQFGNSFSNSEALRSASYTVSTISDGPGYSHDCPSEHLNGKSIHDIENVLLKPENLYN
# 168 GPCRs [7] = target: T7, 168 GPCRs (Homo sapiens, UniProt Q92847); conditions: GHSR
# T7 construct: host or cells: PathHunter cell lines
# T7 sequence (Q92847 whole entry): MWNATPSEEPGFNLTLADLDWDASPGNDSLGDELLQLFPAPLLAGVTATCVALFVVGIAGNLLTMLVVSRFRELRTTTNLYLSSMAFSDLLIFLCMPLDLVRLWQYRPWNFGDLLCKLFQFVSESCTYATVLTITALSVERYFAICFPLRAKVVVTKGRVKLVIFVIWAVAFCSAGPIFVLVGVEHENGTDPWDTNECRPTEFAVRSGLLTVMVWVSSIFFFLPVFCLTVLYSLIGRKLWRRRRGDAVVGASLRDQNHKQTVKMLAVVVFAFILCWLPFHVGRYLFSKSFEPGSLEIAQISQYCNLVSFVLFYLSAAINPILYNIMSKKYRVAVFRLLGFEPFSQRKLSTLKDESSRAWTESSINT
# 168 GPCRs [8] = target: T8, 168 GPCRs (Homo sapiens, UniProt Q9H3N8)
# T8 construct: host or cells: PathHunter cell lines
# T8 sequence (Q9H3N8 whole entry): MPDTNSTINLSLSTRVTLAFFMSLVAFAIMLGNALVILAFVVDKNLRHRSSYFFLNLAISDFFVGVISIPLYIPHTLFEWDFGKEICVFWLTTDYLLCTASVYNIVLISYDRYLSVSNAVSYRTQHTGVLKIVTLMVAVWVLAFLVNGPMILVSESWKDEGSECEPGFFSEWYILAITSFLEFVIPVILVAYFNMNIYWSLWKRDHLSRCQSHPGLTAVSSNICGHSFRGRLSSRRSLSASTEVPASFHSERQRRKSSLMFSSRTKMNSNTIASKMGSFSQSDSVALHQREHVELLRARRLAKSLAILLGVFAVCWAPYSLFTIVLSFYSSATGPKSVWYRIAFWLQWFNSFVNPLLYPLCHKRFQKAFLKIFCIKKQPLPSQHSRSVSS
# 168 GPCRs [9] = target: T9, 168 GPCRs (Homo sapiens, UniProt Q9P296)
# T9 construct: host or cells: PathHunter cell lines
# T9 sequence (Q9P296 whole entry): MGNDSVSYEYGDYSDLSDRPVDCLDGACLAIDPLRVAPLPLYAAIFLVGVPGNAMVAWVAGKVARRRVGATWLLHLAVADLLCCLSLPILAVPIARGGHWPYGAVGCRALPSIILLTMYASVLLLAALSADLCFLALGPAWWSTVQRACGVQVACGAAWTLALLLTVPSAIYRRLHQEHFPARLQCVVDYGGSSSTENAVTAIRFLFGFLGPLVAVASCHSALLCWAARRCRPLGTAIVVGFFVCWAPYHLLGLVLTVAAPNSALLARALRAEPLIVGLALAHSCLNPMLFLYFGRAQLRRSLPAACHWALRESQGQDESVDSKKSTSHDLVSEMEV
# T1 sequence (P08588 whole entry): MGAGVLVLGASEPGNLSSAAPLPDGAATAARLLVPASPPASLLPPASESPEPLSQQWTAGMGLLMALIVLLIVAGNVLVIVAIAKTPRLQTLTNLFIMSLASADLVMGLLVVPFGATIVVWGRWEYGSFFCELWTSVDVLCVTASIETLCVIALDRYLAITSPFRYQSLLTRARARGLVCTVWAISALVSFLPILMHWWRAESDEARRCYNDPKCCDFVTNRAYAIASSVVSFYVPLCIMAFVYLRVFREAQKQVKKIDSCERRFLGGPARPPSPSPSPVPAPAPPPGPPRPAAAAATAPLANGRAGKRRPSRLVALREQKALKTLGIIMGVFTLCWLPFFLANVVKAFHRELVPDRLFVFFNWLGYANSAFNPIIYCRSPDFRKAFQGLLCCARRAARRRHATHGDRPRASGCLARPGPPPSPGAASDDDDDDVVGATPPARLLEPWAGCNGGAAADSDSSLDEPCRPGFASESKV
smiles,measurement,setting,value
CNC(C)C(=O)c1ccc2c(c1)OCO2 (stereo not shown) [methylone],% Agonist Activity,"168 GPCRs [1]; ADRB1, 1 uM",-1.7%
same,% Antagonist Activity,"168 GPCRs [1]; ADRB1, 1 uM",-0.8%
same,% Agonist Activity,"168 GPCRs [1]; ADRB1, 10 uM",-1.4%
same,% Antagonist Activity,"168 GPCRs [1]; ADRB1, 10 uM",-1.2%
same,% Agonist Activity,168 GPCRs [2]; 1 uM,0.7%
same,% Antagonist Activity,168 GPCRs [2]; 1 uM,17.5%
same,% Agonist Activity,168 GPCRs [2]; 10 uM,-0.1%
same,% Antagonist Activity,168 GPCRs [2]; 10 uM,10.9%
same,% Agonist Activity,168 GPCRs [3]; Conc 1 uM,-2%
same,% Antagonist Activity,168 GPCRs [3]; Conc 1 uM,-7.2%
same,% Agonist Activity,168 GPCRs [3]; Conc 10 uM,-2.2%
same,% Antagonist Activity,168 GPCRs [3]; Conc 10 uM,2.8%
same,% Agonist Activity,168 GPCRs [4]; 1 uM,-3.3%
same,% Antagonist Activity,168 GPCRs [4]; 1 uM,17.9%
same,% Agonist Activity,168 GPCRs [4]; 10 uM,-2.9%
same,% Antagonist Activity,168 GPCRs [4]; 10 uM,20.6%
same,% Agonist Activity,168 GPCRs [5]; Conc 1 uM,-0.6%
same,% Antagonist Activity,168 GPCRs [5]; Conc 1 uM,-1%
same,% Agonist Activity,168 GPCRs [5]; Conc 10 uM,-0.5%
same,% Antagonist Activity,168 GPCRs [5]; Conc 10 uM,-0.2%
same,% Agonist Activity,"168 GPCRs [6]; CALCRL-RAMP1, 1 uM",-2.6%
same,% Antagonist Activity,"168 GPCRs [6]; CALCRL-RAMP1, 1 uM",4.7%
same,% Agonist Activity,"168 GPCRs [6]; CALCRL-RAMP1, 10 uM",-0.2%
same,% Antagonist Activity,"168 GPCRs [6]; CALCRL-RAMP1, 10 uM",7%
same,% Agonist Activity,"168 GPCRs [6]; CALCRL-RAMP2, 1 uM",0.1%
same,% Antagonist Activity,"168 GPCRs [6]; CALCRL-RAMP2, 1 uM",19.1%
same,% Agonist Activity,"168 GPCRs [6]; CALCRL-RAMP2, 10 uM",2.8%
same,% Antagonist Activity,"168 GPCRs [6]; CALCRL-RAMP2, 10 uM",7%
same,% Agonist Activity,"168 GPCRs [6]; CALCRL-RAMP3, 1 uM",-2.2%
same,% Antagonist Activity,"168 GPCRs [6]; CALCRL-RAMP3, 1 uM",-18.5%
same,% Agonist Activity,"168 GPCRs [6]; CALCRL-RAMP3, 10 uM",-2.2%
same,% Antagonist Activity,"168 GPCRs [6]; CALCRL-RAMP3, 10 uM",-7.5%
same,% Agonist Activity,168 GPCRs [7]; 1 uM,-6.6%
same,% Antagonist Activity,168 GPCRs [7]; 1 uM,25.8%
same,% Agonist Activity,168 GPCRs [7]; 10 uM,-7.2%
same,% Antagonist Activity,168 GPCRs [7]; 10 uM,9.1%
same,% Agonist Activity,"168 GPCRs [8]; HRH4, 1 uM",8.6%
same,% Antagonist Activity,"168 GPCRs [8]; HRH4, 1 uM",-11.6%
same,% Agonist Activity,"168 GPCRs [8]; HRH4, 10 uM",9%
same,% Antagonist Activity,"168 GPCRs [8]; HRH4, 10 uM",-14%
same,% Agonist Activity,"168 GPCRs [9]; C5L2, 1 uM",8.4%
same,% Antagonist Activity,"168 GPCRs [9]; C5L2, 1 uM",10%
same,% Agonist Activity,"168 GPCRs [9]; C5L2, 10 uM",12.9%
same,% Antagonist Activity,"168 GPCRs [9]; C5L2, 10 uM",1.4%
"CNC(C)Cc1ccc2c(c1)OCO2 (stereo not shown) [MDMA, 3,4-Methylenedioxy methamphetamine, reference compound]",% Agonist Activity,"168 GPCRs [1]; ADRB1, 1 uM",0.6%
same,% Antagonist Activity,"168 GPCRs [1]; ADRB1, 1 uM",2%
same,% Agonist Activity,"168 GPCRs [1]; ADRB1, 10 uM",0.5%
same,% Antagonist Activity,"168 GPCRs [1]; ADRB1, 10 uM",1.9%
same,% Agonist Activity,168 GPCRs [2]; 1 uM,0%
same,% Antagonist Activity,168 GPCRs [2]; 1 uM,2.5%
same,% Agonist Activity,168 GPCRs [2]; 10 uM,-0.3%
same,% Antagonist Activity,168 GPCRs [2]; 10 uM,6.4%
same,% Agonist Activity,168 GPCRs [3]; Conc 1 uM,-0.4%
same,% Antagonist Activity,168 GPCRs [3]; Conc 1 uM,16.2%
same,% Agonist Activity,168 GPCRs [3]; Conc 10 uM,-0.1%
same,% Antagonist Activity,168 GPCRs [3]; Conc 10 uM,9.9%
same,% Agonist Activity,168 GPCRs [4]; 1 uM,-1.6%
same,% Antagonist Activity,168 GPCRs [4]; 1 uM,18.7%
same,% Agonist Activity,168 GPCRs [4]; 10 uM,-1.6%
same,% Antagonist Activity,168 GPCRs [4]; 10 uM,35.1%
same,% Agonist Activity,168 GPCRs [5]; Conc 1 uM,0.2%
same,% Antagonist Activity,168 GPCRs [5]; Conc 1 uM,2.9%
same,% Agonist Activity,168 GPCRs [5]; Conc 10 uM,0.5%
same,% Antagonist Activity,168 GPCRs [5]; Conc 10 uM,7%
same,% Agonist Activity,"168 GPCRs [6]; CALCRL-RAMP1, 1 uM",0.3%
same,% Antagonist Activity,"168 GPCRs [6]; CALCRL-RAMP1, 1 uM",6.8%
same,% Agonist Activity,"168 GPCRs [6]; CALCRL-RAMP1, 10 uM",-0.6%
same,% Antagonist Activity,"168 GPCRs [6]; CALCRL-RAMP1, 10 uM",8.1%
same,% Agonist Activity,"168 GPCRs [6]; CALCRL-RAMP2, 1 uM",-1%
same,% Antagonist Activity,"168 GPCRs [6]; CALCRL-RAMP2, 1 uM",28.7%
same,% Agonist Activity,"168 GPCRs [6]; CALCRL-RAMP2, 10 uM",0.9%
same,% Antagonist Activity,"168 GPCRs [6]; CALCRL-RAMP2, 10 uM",30.8%
same,% Agonist Activity,"168 GPCRs [6]; CALCRL-RAMP3, 1 uM",-0.9%
same,% Antagonist Activity,"168 GPCRs [6]; CALCRL-RAMP3, 1 uM",-8.1%
same,% Agonist Activity,"168 GPCRs [6]; CALCRL-RAMP3, 10 uM",-1.4%
same,% Antagonist Activity,"168 GPCRs [6]; CALCRL-RAMP3, 10 uM",-13%
same,% Agonist Activity,168 GPCRs [7]; 1 uM,3%
same,% Antagonist Activity,168 GPCRs [7]; 1 uM,-30.8%
same,% Agonist Activity,168 GPCRs [7]; 10 uM,3.1%
same,% Antagonist Activity,168 GPCRs [7]; 10 uM,-7%
same,% Agonist Activity,"168 GPCRs [8]; HRH4, 1 uM",1.9%
same,% Antagonist Activity,"168 GPCRs [8]; HRH4, 1 uM",14.5%
same,% Agonist Activity,"168 GPCRs [8]; HRH4, 10 uM",3.1%
same,% Antagonist Activity,"168 GPCRs [8]; HRH4, 10 uM",14.5%
same,% Agonist Activity,"168 GPCRs [9]; C5L2, 1 uM",7.7%
same,% Antagonist Activity,"168 GPCRs [9]; C5L2, 1 uM",-5.5%
same,% Agonist Activity,"168 GPCRs [9]; C5L2, 10 uM",3.3%
same,% Antagonist Activity,"168 GPCRs [9]; C5L2, 10 uM",-4%
